What was measured:
K-Ras G12D = target: T1, K-Ras G12D (Homo sapiens, UniProt P01116, G12D); assay: HTRF resonance energy transfer assay, K-Ras G12D / SOS1 interaction; format: biochemical; conditions: HTRF assay of Example 5; read-out: IC50 against K-Ras G12D
T1 construct: made in house; host or cells: E. coli BL21 (DE3)
Procedure, shortened: (§1)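 Compounds, tested in duplicate at 10 μM down to 0.01 μM, were read after about 10 min or more by HTRF as the 665/620 nm emission ratio (337 nm excitation) to derive IC50. This ratio reports FRET between an anti-GST-Eu donor on GST-K-Ras (wild-type or mutant) and an anti-6His-XL665 acceptor on His-hSOS1. Buffer: ~5 mM HEPES pH 7.4, 150 mM NaCl, 1 mM DTT, 0.05% BSA, 0.0025% Igepal.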

K-Ras G12V = target: T2, K-Ras G12V (Homo sapiens, UniProt P01116, G12V); assay: HTRF resonance energy transfer assay, K-Ras G12V / SOS1 interaction; format: biochemical; conditions: HTRF assay of Example 5; read-out: IC50 against K-Ras G12V
T2 construct: made in house; host or cells: E. coli BL21 (DE3)
T2 sequence (P01116 1-188 isoform P01116-2 G12V): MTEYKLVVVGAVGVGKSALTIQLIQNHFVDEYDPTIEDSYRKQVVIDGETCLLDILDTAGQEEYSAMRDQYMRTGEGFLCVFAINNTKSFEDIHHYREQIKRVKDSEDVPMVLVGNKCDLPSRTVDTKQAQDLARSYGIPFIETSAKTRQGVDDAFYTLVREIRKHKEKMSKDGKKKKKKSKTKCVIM
Procedure, shortened: as §1

K-Ras WT = target: T3, K-Ras WT (Homo sapiens, UniProt P01116); assay: HTRF resonance energy transfer assay, K-Ras WT / SOS1 interaction; format: biochemical; conditions: HTRF assay of Example 5; read-out: IC50 against K-Ras WT
T3 construct: made in house; host or cells: E. coli BL21 (DE3)
T3 sequence (P01116 1-188 isoform P01116-2): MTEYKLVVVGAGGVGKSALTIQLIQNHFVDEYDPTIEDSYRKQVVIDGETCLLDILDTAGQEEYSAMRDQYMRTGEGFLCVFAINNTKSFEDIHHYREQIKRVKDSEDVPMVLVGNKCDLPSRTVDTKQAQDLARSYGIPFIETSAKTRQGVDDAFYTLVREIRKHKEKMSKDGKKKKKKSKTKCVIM
Procedure, shortened: as §1

SW620 cells = assay: Ras cellular assay, growth of cells with K-Ras G12V mutation (CellTiter-Glo); format: cell-based; conditions: Homo sapiens, SW-620; cell growth, Example 9, G12V mutation; read-out: IC50 against SW620 cells
Procedure, shortened: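 IC50 values came from a four-parameter fit of CellTiter-Glo viability, read roughly 6 days after dosing with e.g. a 10-point threefold dilution series. G12V-mutant SW620 cells (e.g. 800 per well) had been plated the previous day in RPMI-1640/10% heat-inactivated FBS, on tissue culture-treated or ultra-low attachment plates.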

GP2D cells = assay: Ras cellular assay, growth of cells with K-Ras G12D mutation (CellTiter-Glo); format: cell-based; conditions: cell growth, Example 9, G12D mutation, read-out: IC50 against GP2D cells
K-Ras G12S = target: T4, K-Ras G12S (Homo sapiens, UniProt P01116, G12S); assay: HTRF resonance energy transfer assay, K-Ras G12S / SOS1 interaction; format: biochemical; conditions: HTRF assay of Example 5; read-out: IC50 against K-Ras G12S
T4 construct: made in house; host or cells: E. coli BL21 (DE3)
T4 sequence (P01116 1-188 isoform P01116-2 G12S): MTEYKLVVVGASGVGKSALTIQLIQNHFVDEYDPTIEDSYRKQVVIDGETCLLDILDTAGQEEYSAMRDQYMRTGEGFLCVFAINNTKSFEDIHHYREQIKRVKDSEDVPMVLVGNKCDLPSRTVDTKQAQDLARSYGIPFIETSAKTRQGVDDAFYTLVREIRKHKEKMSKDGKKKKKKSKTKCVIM
Procedure, shortened: as §1

T1 sequence (P01116 1-188 isoform P01116-2 G12D): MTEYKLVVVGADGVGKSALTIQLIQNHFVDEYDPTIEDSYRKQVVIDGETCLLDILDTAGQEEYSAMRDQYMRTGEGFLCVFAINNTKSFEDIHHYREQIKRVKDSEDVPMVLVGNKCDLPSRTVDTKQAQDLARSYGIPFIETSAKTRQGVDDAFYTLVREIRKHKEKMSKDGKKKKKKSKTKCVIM

| SMILES | IC50 (K-Ras G12D) | IC50 (K-Ras G12V) | IC50 (K-Ras WT) | IC50 (SW620 cells) | IC50 (K-Ras G12S) | IC50 (GP2D cells) |
| --- | --- | --- | --- | --- | --- | --- |
| C[C@H](O)[C@H]1COc2c(Cl)c(-c3ccc(F)c4sc(N)c(C#N)c34)c(F)c3nc(OC[C@@]45CCCN4C[C@H](F)C5)nc(c23)N1 [Compound 775, 2-amino-4-((5R)-8-chloro-10-fluoro-2-(((2R,7aS)-2-fluorotetrahydro-1H-pyrrolizin-7a(5H)-yl)methoxy)-5-((S)-1-hydroxyethyl)-5,6-dihydro-4H-[1,4]oxazepino[5,6,7-de]quinazolin-9-yl)-7-fluorobenzo[b]thiophene-3-carbonitrile] | < 100 nM | < 100 nM | < 100 nM | < 5 µM | < 100 nM | < 500 nM |
| N#Cc1c(N)sc2c(F)ccc(-c3c(Cl)c4c5c(nc(OC[C@@]67CCCN6C[C@H](F)C7)nc5c3F)N(C3CCCCC(O)C3)CCO4)c12 (stereo partly drawn) [Compound 795, 2-amino-4-(8-chloro-10-fluoro-2-(((2R,7aS)-2-fluorotetrahydro-1H-pyrrolizin-7a(5H)-yl)methoxy)-4-(3-hydroxycycloheptyl)-5,6-dihydro-4H-[1,4]oxazepino[5,6,7-de]quinazolin-9-yl)-7-fluorobenzo[b]thiophene-3-carbonitrile] | < 100 nM | < 100 nM | < 100 nM | < 5 µM | < 100 nM | < 500 nM |
| CC(C)(O)[C@H]1COc2c(Cl)c(-c3ccc(F)c4sc(N)c(C#N)c34)c(F)c3nc(OC[C@@]45CCCN4C[C@H](F)C5)nc(c23)N1 [Compound 815, 2-amino-4-((5R)-8-chloro-10-fluoro-2-(((2R,7aS)-2-fluorotetrahydro-1H-pyrrolizin-7a(5H)-yl)methoxy)-5-(2-hydroxypropan-2-yl)-5,6-dihydro-4H-[1,4]oxazepino[5,6,7-de]quinazolin-9-yl)-7-fluorobenzo[b]thiophene-3-carbonitrile] | < 100 nM | < 100 nM | < 100 nM | < 5 µM | < 100 nM | < 500 nM |
| N#Cc1c(N)sc2c(F)ccc(-c3c(Cl)c4c5c(nc(OC[C@@]67CCCN6C[C@H](F)C7)nc5c3F)N(CC3CC3C#N)[C@@H](C3(O)CC3)CO4)c12 (stereo partly drawn) [Compound 876, 2-amino-4-((5R)-8-chloro-4-((2-cyanocyclopropyl)methyl)-10-fluoro-2-(((2R,7aS)-2-fluorotetrahydro-1H-pyrrolizin-7a(5H)-yl)methoxy)-5-(1-hydroxycyclopropyl)-5,6-dihydro-4H-[1,4]oxazepino[5,6,7-de]quinazolin-9-yl)-7-fluorobenzo[b]thiophene-3-carbonitrile] | < 100 nM | < 100 nM | < 100 nM | < 5 µM | < 100 nM | < 500 nM |
| CN(C)CCN1c2nc(OC[C@@]34CCCN3C[C@H](F)C4)nc3c(F)c(-c4ccc(F)c5sc(N)c(C#N)c45)c(Cl)c(c23)OCC1CC#N (stereo partly drawn) [Compound 885, 2-amino-4-(8-chloro-5-(cyanomethyl)-4-(2-(dimethylamino)ethyl)-10-fluoro-2-(((2R,7aS)-2-fluorotetrahydro-1H-pyrrolizin-7a(5H)-yl)methoxy)-5,6-dihydro-4H-[1,4]oxazepino[5,6,7-de]quinazolin-9-yl)-7-fluorobenzo[b]thiophene-3-carbonitrile] | < 100 nM | < 100 nM | < 100 nM | < 5 µM | < 100 nM | < 500 nM |
| CN(C)CCCN1c2nc(OC[C@@]34CCCN3C[C@H](F)C4)nc3c(F)c(-c4ccc(F)c5sc(N)c(C#N)c45)c(Cl)c(c23)OCC1CC#N (stereo partly drawn) [Compound 896, 2-amino-4-(8-chloro-5-(cyanomethyl)-4-(3-(dimethylamino)propyl)-10-fluoro-2-(((2R,7aS)-2-fluorotetrahydro-1H-pyrrolizin-7a(5H)-yl)methoxy)-5,6-dihydro-4H-[1,4]oxazepino[5,6,7-de]quinazolin-9-yl)-7-fluorobenzo[b]thiophene-3-carbonitrile] | < 100 nM | < 100 nM | < 100 nM | < 5 µM | < 100 nM | < 500 nM |
| C[C@H](O)[C@H]1[C@@H](C)Oc2c(Cl)c(-c3ccc(F)c4sc(N)c(C#N)c34)c(F)c3nc(OC[C@@]45CCCN4C[C@H](F)C5)nc(c23)N1CC(F)F [Compound 911, 2-amino-4-((5S,6R)-8-chloro-4-(2,2-difluoroethyl)-10-fluoro-2-(((2R,7aS)-2-fluorotetrahydro-1H-pyrrolizin-7a(5H)-yl)methoxy)-5-((S)-1-hydroxyethyl)-6-methyl-5,6-dihydro-4H-[1,4]oxazepino[5,6,7-de]quinazolin-9-yl)-7-fluorobenzo[b]thiophene-3-carbonitrile] | < 100 nM | < 100 nM | < 100 nM | < 5 µM | < 100 nM | < 500 nM |

More lines, main results first:

| IC50 (K-Ras G12D) | IC50 (K-Ras G12V) | IC50 (K-Ras WT) | IC50 (SW620 cells) | IC50 (K-Ras G12S) | SMILES | IC50 (GP2D cells) |
| --- | --- | --- | --- | --- | --- | --- |
| < 100 nM | < 100 nM | < 100 nM | < 5 µM | < 100 nM | N#Cc1c(N)sc2c(F)ccc(-c3c(Cl)c4c5c(nc(OC[C@@]67CCCN6C[C@H](F)C7)nc5c3F)N(CC(F)F)[C@@H](C(O)C(F)(F)F)CO4)c12 (stereo partly drawn) [Compound 919, 2-amino-4-((5R)-8-chloro-4-(2,2-difluoroethyl)-10-fluoro-2-(((2R,7aS)-2-fluorotetrahydro-1H-pyrrolizin-7a(5H)-yl)methoxy)-5-(2,2,2-trifluoro-1-hydroxyethyl)-5,6-dihydro-4H-[1,4]oxazepino[5,6,7-de]quinazolin-9-yl)-7-fluorobenzo[b]thiophene-3-carbonitrile] | < 500 nM |
| < 100 nM | < 100 nM | < 100 nM | < 5 µM | < 100 nM | N#Cc1c(N)sc2c(F)ccc(-c3c(Cl)c4c5c(nc(OC[C@@]67CCCN6C[C@H](F)C7)nc5c3F)N(CC(F)F)C(C3(F)CC3)CO4)c12 (stereo partly drawn) [Compound 943, 2-amino-4-(8-chloro-4-(2,2-difluoroethyl)-10-fluoro-5-(1-fluorocyclopropyl)-2-(((2R,7aS)-2-fluorotetrahydro-1H-pyrrolizin-7a(5H)-yl)methoxy)-5,6-dihydro-4H-[1,4]oxazepino[5,6,7-de]quinazolin-9-yl)-7-fluorobenzo[b]thiophene-3-carbonitrile] | < 500 nM |
| < 100 nM | < 100 nM | < 100 nM | < 5 µM | < 100 nM | N#Cc1c(N)sc2c(F)ccc(-c3c(Cl)c4c5c(nc(OC[C@@]67CCCN6C[C@H](F)C7)nc5c3F)N(CCC(F)F)[C@@H](C3(O)CC3)CO4)c12 [Compound 986, 2-amino-4-((R)-8-chloro-4-(3,3-difluoropropyl)-10-fluoro-2-(((2R,7aS)-2-fluorotetrahydro-1H-pyrrolizin-7a(5H)-yl)methoxy)-5-(1-hydroxycyclopropyl)-5,6-dihydro-4H-[1,4]oxazepino[5,6,7-de]quinazolin-9-yl)-7-fluorobenzo[b]thiophene-3-carbonitrile] | < 500 nM |
| < 100 nM | < 100 nM | < 100 nM | < 5 µM | < 100 nM | C[C@@H]1C[C@@H](N2CCOc3c(Cl)c(-c4ccc(F)c5sc(N)c(C#N)c45)c(F)c4nc(OC[C@@]56CCCN5C[C@H](F)C6)nc2c34)CN1 [Compound 1016, 2-amino-4-(8-chloro-10-fluoro-2-(((2R,7aS)-2-fluorotetrahydro-1H-pyrrolizin-7a(5H)-yl)methoxy)-4-((3R,5R)-5-methylpyrrolidin-3-yl)-5,6-dihydro-4H-[1,4]oxazepino[5,6,7-de]quinazolin-9-yl)-7-fluorobenzo[b]thiophene-3-carbonitrile] | < 500 nM |
| < 100 nM | < 100 nM | < 100 nM | < 5 µM | < 100 nM | N#Cc1c(N)sc2c(F)ccc(-c3c(Cl)c4c5c(nc(OC[C@@]67CCCN6C[C@H](F)C7)nc5c3F)N(CC(F)F)[C@@H](C3CC3)CO4)c12 [Compound 1022, 2-amino-4-((S)-8-chloro-5-cyclopropyl-4-(2,2-difluoroethyl)-10-fluoro-2-(((2R,7aS)-2-fluorotetrahydro-1H-pyrrolizin-7a(5H)-yl)methoxy)-5,6-dihydro-4H-[1,4]oxazepino[5,6,7-de]quinazolin-9-yl)-7-fluorobenzo[b]thiophene-3-carbonitrile] | < 500 nM |
| < 100 nM | < 100 nM | < 100 nM | < 5 µM | < 100 nM | N#Cc1c(N)sc2c(F)ccc(-c3c(Cl)c4c5c(nc(OC[C@@]67CCCN6C[C@H](F)C7)nc5c3F)N(C3CCOC3)[C@@H](C3(O)CC3)CO4)c12 (stereo partly drawn) [Compound 1031, 2-amino-4-((5R)-8-chloro-10-fluoro-2-(((2R,7aS)-2-fluorotetrahydro-1H-pyrrolizin-7a(5H)-yl)methoxy)-5-(1-hydroxycyclopropyl)-4-(tetrahydrofuran-3-yl)-5,6-dihydro-4H-[1,4]oxazepino[5,6,7-de]quinazolin-9-yl)-7-fluorobenzo[b]thiophene-3-carbonitrile] | < 500 nM |

Reference: patent publication US12209102B2, “Heterocyclic compounds and uses thereof” (Kumquat Biosciences Inc., priority 2022, dated 2025)
